# Literature values as cited in US20020025537A1, “High-throughput methods for generating and screening compounds that affect cell viability” (priority 2000, published 2002).
# Bridge positions count the residues as written; N and C are the ends. Ends that are not written are not given here.
# Tests used:
# [1] = system: Gram negative and Gram positive pathogenic bacteria, including strains of methicillin resistant S. aureus and vancomycin resistant E. faecalis; settings: in vitro; Gram negative and Gram positive pathogens incl. MRSA and vancomycin resistant E. faecalis
# [2] = system: methicillin resistant S. aureus and vancomycin resistant E. faecalis; settings: intravenous administration
substance,measurement,setting,value
"protegrin-1 (RGGRLCYCRRRFCVCVGR-NH2; disulfide 8-13, 6-15; ends not checked; UniProt P32194 131-148, looked up) [PG-1, a native peptide obtained from porcine leukocytes]",bactericidal activity,[1],rapid bactericidal activity
same,toxicity to the mice,[2],without apparent toxicity
same,protection from lethal challenges,"[2]; mice, challenge with MRSA or vancomycin resistant E. faecalis",protected mice from lethal challenges
